Reference: ChEMBL document CHEMBL4387773, “Identification of potent, selective and orally bioavailable phenyl ((R)-3-phenylpyrrolidin-3-yl)sulfone analogues as RORγt inverse agonists” (Bioorg Med Chem Lett, 2019)

Tests used:
[1] = molecular target: T1, Nuclear receptor ROR-beta (Homo sapiens, UniProt Q92753); experiment: Inverse agonist activity at human Gal4-fused RORbeta LBD (200 to 559 residues) expressed in human Jurkat cells measured after 18 hrs by steady-glo luciferase reporter gene assay; type: cell-based
T1 sequence (Q92753 whole entry): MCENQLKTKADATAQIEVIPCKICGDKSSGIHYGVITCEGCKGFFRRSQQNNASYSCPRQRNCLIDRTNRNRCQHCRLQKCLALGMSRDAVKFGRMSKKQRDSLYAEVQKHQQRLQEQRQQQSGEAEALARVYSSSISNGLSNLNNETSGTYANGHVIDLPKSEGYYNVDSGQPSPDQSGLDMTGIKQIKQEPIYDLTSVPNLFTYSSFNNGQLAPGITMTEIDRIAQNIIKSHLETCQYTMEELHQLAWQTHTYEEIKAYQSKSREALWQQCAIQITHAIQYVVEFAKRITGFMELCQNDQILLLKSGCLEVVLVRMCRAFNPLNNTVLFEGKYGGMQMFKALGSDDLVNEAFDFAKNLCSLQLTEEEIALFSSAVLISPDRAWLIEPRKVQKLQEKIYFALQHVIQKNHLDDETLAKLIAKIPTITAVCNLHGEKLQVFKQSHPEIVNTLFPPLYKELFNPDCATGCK

PXR = molecular target: T2, PXR (Homo sapiens, UniProt O75469); experiment: Transactivation of PXR (unknown origin) expressed in human HepG2 cells assessed as maximum receptor activation response relative to control; type: cell-based; conditions: human HepG2 cells that express PXR, read-out: %max
T2 sequence (O75469 whole entry): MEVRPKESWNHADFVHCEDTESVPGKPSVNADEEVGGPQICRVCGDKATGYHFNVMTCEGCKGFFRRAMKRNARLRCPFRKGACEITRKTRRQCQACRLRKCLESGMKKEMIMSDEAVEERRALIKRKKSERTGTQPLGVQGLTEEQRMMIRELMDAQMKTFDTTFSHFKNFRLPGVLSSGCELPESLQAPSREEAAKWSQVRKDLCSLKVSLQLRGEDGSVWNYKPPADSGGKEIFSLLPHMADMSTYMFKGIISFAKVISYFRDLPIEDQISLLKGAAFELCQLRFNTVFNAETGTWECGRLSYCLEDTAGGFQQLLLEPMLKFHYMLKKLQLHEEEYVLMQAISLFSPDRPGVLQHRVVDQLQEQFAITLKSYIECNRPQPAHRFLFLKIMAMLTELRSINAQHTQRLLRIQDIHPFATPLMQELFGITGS

[2] = molecular target: T3, Oxysterols receptor LXR-beta (Homo sapiens, UniProt P55055); experiment: Transactivation of human GAL4-fused LXRbeta expressed in African green monkey CV1 cells; type: cell-based
T3 sequence (P55055 whole entry): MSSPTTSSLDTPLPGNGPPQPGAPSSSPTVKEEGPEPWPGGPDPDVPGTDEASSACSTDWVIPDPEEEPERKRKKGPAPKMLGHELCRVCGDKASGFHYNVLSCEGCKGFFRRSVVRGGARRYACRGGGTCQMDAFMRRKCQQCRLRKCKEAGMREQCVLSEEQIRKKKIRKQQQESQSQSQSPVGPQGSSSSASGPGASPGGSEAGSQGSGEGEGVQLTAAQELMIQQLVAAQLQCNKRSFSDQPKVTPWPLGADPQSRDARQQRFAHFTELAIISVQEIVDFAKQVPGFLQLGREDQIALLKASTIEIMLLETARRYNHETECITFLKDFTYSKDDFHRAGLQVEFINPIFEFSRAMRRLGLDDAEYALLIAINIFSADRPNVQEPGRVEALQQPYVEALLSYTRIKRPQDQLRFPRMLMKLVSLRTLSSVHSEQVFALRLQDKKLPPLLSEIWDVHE

[3] = molecular target: T4, Oxysterols receptor LXR-alpha (Homo sapiens, UniProt Q13133); experiment: Transactivation of human GAL4-fused LXRalpha expressed in African green monkey CV1 cells; type: cell-based
T4 sequence (Q13133 whole entry): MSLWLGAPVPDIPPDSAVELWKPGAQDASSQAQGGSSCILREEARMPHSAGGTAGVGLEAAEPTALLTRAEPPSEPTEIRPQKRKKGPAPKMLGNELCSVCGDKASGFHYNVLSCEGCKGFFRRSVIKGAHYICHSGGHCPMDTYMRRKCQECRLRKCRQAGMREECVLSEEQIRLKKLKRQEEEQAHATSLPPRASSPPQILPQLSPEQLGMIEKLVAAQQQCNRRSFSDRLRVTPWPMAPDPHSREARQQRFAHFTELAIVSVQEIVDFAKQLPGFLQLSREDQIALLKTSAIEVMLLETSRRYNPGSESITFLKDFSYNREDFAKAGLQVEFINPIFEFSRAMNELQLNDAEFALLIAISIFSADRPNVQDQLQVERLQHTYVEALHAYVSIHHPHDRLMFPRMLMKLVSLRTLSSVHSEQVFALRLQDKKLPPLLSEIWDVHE

[4] = molecular target: T5, Nuclear receptor ROR-alpha (Homo sapiens, UniProt P35398); experiment: Inverse agonist activity at human Gal4-fused RORalpha LBD (272 to 556 residues) expressed in human Jurkat cells measured after 18 hrs by steady-glo luciferase reporter gene assay; type: cell-based
T5 sequence (P35398 whole entry): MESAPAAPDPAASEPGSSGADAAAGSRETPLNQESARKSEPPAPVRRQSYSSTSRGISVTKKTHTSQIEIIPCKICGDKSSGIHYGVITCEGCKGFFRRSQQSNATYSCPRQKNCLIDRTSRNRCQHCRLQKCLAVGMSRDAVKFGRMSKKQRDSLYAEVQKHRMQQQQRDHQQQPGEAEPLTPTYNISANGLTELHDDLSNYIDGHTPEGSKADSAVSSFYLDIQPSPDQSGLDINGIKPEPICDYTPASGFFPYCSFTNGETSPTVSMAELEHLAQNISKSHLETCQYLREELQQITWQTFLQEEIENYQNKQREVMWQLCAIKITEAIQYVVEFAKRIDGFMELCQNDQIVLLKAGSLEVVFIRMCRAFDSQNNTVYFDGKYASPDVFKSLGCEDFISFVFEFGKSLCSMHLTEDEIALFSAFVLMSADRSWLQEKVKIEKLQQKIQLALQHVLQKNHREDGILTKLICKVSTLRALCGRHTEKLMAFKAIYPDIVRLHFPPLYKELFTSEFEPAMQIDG

[5] = molecular target: T6, Nuclear receptor subfamily 1 group I member 2 (Homo sapiens, UniProt O75469); experiment: Transactivation of PXR (unknown origin) expressed in human HepG2 cells; type: cell-based
T6 sequence (O75469 whole entry): T2 sequence (O75469 whole entry)

[6] = Stability in human liver microsomes assessed as parent compound remaining after 10 mins; type: ADME, Microsome; conditions: liver microsomes, read-out: Stability
[7] = Stability in mouse liver microsomes assessed as parent compound remaining after 10 mins; type: ADME, Microsome; conditions: liver microsomes, read-out: Stability

| Compound | EC50 [1] [µM] | Emax (PXR) [%] | EC50 [2] [µM] | EC50 [3] [µM] | EC50 [4] [µM] | EC50 [5] [µM] | remaining at 10 min [6] [%] | remaining at 10 min [7] [%] |
| --- | --- | --- | --- | --- | --- | --- | --- | --- |
| O=C(O)[C@H]1CC[C@](F)(C(=O)N2CC[C@](c3ccc(C(F)(C(F)(F)F)C(F)(F)F)cc3)(S(=O)(=O)c3ccc(F)cc3)C2)CC1 | > 40 | 31 | > 7.5 | > 7.5 | > 40 | 10.6 |  |  |
| CC1(C(=O)N2CC[C@](c3ccc(C(F)(C(F)(F)F)C(F)(F)F)cc3)(S(=O)(=O)c3ccc(F)cc3)C2)CCS(=O)(=O)CC1 | > 40 | 10 | > 7.5 | > 7.5 | > 40 | > 50 |  |  |
| O=C([C@H]1CC[C@](F)(C(=O)O)CC1)N1CC[C@](c2ccc(C(F)(C(F)(F)F)C(F)(F)F)cc2)(S(=O)(=O)c2ccc(F)cc2)C1 | > 40 | 62 | > 7.5 | > 7.5 | > 40 | > 17 | 100 | 70 |
| O=C([C@H]1CC[C@H](O)CC1)N1CC[C@](c2ccc(C(F)(C(F)(F)F)C(F)(F)F)cc2)(S(=O)(=O)c2ccc(F)cc2)C1 | > 40 | 13 | > 7.5 | > 7.5 | > 40 | > 50 | 86 | 58 |
| O=C(O)[C@@H]1C[C@@H]2[C@H](C1)[C@H]2C(=O)N1CC[C@](c2ccc(C(F)(C(F)(F)F)C(F)(F)F)cc2)(S(=O)(=O)c2ccc(F)cc2)C1 | > 40 | 43 | > 7.5 | > 7.5 | > 40 | > 33 | 100 | 100 |
| CC[C@]1(C(=O)O)CC[C@H](C(=O)N2CC[C@](c3ccc(C(F)(C(F)(F)F)C(F)(F)F)cc3)(S(=O)(=O)c3ccc(F)cc3)C2)CC1 | > 40 | 6 | > 7.5 | > 7.5 | > 40 | > 50 | 100 |  |
| O=C([C@H]1CC[C@H](CO)CC1)N1CC[C@](c2ccc(C(F)(C(F)(F)F)C(F)(F)F)cc2)(S(=O)(=O)c2ccc(F)cc2)C1 | > 40 | 8 | > 7.5 | > 7.5 | > 40 | > 50 | 75 | 63 |
| O=C([C@H]1CC[C@H](c2nnn[nH]2)CC1)N1CC[C@](c2ccc(C(F)(C(F)(F)F)C(F)(F)F)cc2)(S(=O)(=O)c2ccc(F)cc2)C1 | > 40 | 11 | > 7.5 | > 7.5 | > 40 | > 50 | 100 | 73 |
| O=C(N1CC[C@](c2ccc(C(F)(C(F)(F)F)C(F)(F)F)cc2)(S(=O)(=O)c2ccc(F)cc2)C1)C1(CO)CCS(=O)(=O)CC1 | > 40 | 8 | > 7.5 | > 7.5 | > 40 | > 50 | 75 | 31 |
| COC[C@]1(C(=O)N2CC[C@](c3ccc(C(F)(C(F)(F)F)C(F)(F)F)cc3)(S(=O)(=O)c3ccc(F)cc3)C2)CC[C@H](C(=O)O)CC1 | > 40 | 7 | > 7.5 | > 7.5 | > 40 | > 50 | 100 | 88 |
| NC(=O)[C@H]1CC[C@H](C(=O)N2CC[C@](c3ccc(C(F)(C(F)(F)F)C(F)(F)F)cc3)(S(=O)(=O)c3ccc(F)cc3)C2)CC1 | > 40 | 5 | > 7.5 | > 7.5 | > 40 | > 50 | 100 | 100 |
| O=C(C1CCS(=O)(=O)C1)N1CC[C@](c2ccc(C(F)(C(F)(F)F)C(F)(F)F)cc2)(S(=O)(=O)c2ccc(F)cc2)C1 (stereo in doubt; 32) | > 40 | 49 | > 7.5 | > 7.5 | > 40 | > 13 | 100 | 78 |
| O=C(O)C12CCC(C(=O)N3CC[C@](c4ccc(C(F)(C(F)(F)F)C(F)(F)F)cc4)(S(=O)(=O)c4ccc(F)cc4)C3)(CC1)C2 | > 40 |  | > 7.5 | > 7.5 | > 40 |  |  |  |
| O=C(O)[C@H]1CC[C@H](C(=O)N2CC[C@](c3ccc(C(F)(C(F)(F)F)C(F)(F)F)cc3)(S(=O)(=O)c3ccc(F)cc3)C2)CC1 | > 40 |  | > 7.5 | > 7.5 | > 40 |  | 97 |  |
| COC(=O)[C@H]1CC[C@H](C(=O)N2CC[C@](c3ccc(C(F)(C(F)(F)F)C(F)(F)F)cc3)(S(=O)(=O)c3ccc(F)cc3)C2)CC1 | > 40 |  | > 7.5 | > 7.5 | > 40 |  |  |  |
| O=C(N1CC[C@](c2ccc(C(F)(C(F)(F)F)C(F)(F)F)cc2)(S(=O)(=O)c2ccc(F)cc2)C1)C12CCC(C(=O)O)(CC1)OC2 | > 40 | 5 | > 7.5 | > 7.5 | > 40 | > 50 |  |  |
| O=C(O)[C@H]1[C@@H]2C[C@@H](C(=O)N3CC[C@](c4ccc(C(F)(C(F)(F)F)C(F)(F)F)cc4)(S(=O)(=O)c4ccc(F)cc4)C3)C[C@@H]21 | > 40 | 15 | > 7.5 | > 7.5 | > 40 | > 50 | 100 |  |
| COC1(C(=O)N2CC[C@](c3ccc(C(F)(C(F)(F)F)C(F)(F)F)cc3)(S(=O)(=O)c3ccc(F)cc3)C2)CCS(=O)(=O)CC1 | > 40 | 3 | > 7.5 | > 7.5 | > 40 | > 50 |  |  |
| CCC[C@]1(C(=O)N2CC[C@](c3ccc(C(F)(C(F)(F)F)C(F)(F)F)cc3)(S(=O)(=O)c3ccc(F)cc3)C2)CC[C@H](C(=O)O)CC1 | > 40 |  | > 7.5 | > 7.5 | > 40 |  |  |  |
